Experimental findings from US10966996B2, “Glechoma longitube extract, preparation method for same, and use thereof in sugar reduction, weight loss, and lipid reduction” (SHANGHAI INSTITUTE OF MATERIA MEDICA CHINESE ACADEMY OF …, priority 2014, dated 2021) are described below.

Type in all cases: biochemical
The target in one assay is T1, hDGAT1 (Homo sapiens, UniProt O75907).
T1 construct: made in house; host or cells: insect cells
T1 sequence (O75907 1-488): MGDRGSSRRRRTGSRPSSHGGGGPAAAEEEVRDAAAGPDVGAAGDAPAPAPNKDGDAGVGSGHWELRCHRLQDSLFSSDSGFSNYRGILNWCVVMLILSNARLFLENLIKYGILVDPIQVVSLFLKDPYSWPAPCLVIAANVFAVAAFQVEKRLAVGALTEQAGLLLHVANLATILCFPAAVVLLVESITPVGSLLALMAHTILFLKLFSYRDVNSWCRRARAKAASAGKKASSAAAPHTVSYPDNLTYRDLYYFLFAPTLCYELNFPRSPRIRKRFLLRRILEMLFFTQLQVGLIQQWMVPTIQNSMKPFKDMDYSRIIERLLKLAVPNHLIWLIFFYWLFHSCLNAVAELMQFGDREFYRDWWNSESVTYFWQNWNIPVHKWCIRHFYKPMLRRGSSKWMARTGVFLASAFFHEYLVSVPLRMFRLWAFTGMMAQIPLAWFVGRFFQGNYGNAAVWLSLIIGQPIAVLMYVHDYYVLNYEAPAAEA
Put plainly: inhibitory activity against hDGAT1 (CPM fluorescence). As to the method: Experimental method: (1) the effect of the extract of Glechoma longituba (Nakai) Kupr., LQC-H-1, on serum triglyceride level was evaluated in acute hypertriglyceridemic mouse model; 6-week old male C57BL/KsJ mice (Shanghai Slac Laboratory Animal Company), 8 for each group, weight of 20±2 g, were fed according to SPF grade operation procedure and fasted overnight for 16 hours prior to experiment. Compounds of different concentrations were intragastric administrated to each administration group of mice, respectively. Equal volume of water was given to control group and blank group of mice. 30 mins later, 2 g/kg olive oil was intragastric administrated to administration group and control group of mice, while equal volume of water was given to blank group of mice. 2 hours later, blood was collected from orbital vein of each group of mice for the separation of serum, and concentration of triglyceride in the serum was measured; (2) inhibitory activity of the individual compounds separated from the extract of Glechoma longituba (Nakai) Kupr., LQC-H-1, against diacylglycerol acyltransferase (DGAT): human derived DGAT1 obtained by expression and purification with insect cells were pre-incubated together with the compounds, substrate diacylglycerol was added to initiate the reaction in the presence of coenzyme A, fluorescence signal generated by the combination of produced sulfydryl and CPM was measured, and the inhibitory activity of the compound against DGAT was calculated according to the following formula: Inhibition rate %=(OD blank−OD compound)/(OD blank−OD negative control)*100%
(§1) OD compound, OD blank, and OD negative control represented the fluorescence values from a compound well, a blank well, and a negative control well free of DGAT1 enzyme, and the concentrations of the compounds when the enzyme activity inhibition rate (%) reached 50% were set as IC50 value; (3) inhibitory activity of the individual compounds separated from the extract of Glechoma longituba (Nakai) Kupr., LQC-H-1, against pancrelipase: substrate p-Nitrophenyl acetate (Sigma, USA) was formulated to 1.35 mM with phosphate buffer (25 mM, pH 6.8); porcine pancrelipase (Sigma) was formulated to 10 mg/ml with phosphate buffer; brominated eneyne compounds were formulated to solutions of different concentrations with phosphate buffer. Then, 50 μl of 1.35 mM p-Nitrophenyl acetate (Sigma, USA) solution and 10 μl of test compounds of different concentrations were sequentially added into a 96-well plate and pre-incubated at 37° C. for 5 mins. Finally, 50 μl of 10 mg/ml pancrelipase (EC 3.1.1.3, Sigma, USA) was added and mixed. The reaction proceeded at 37° C. for further 20 mins Absorbance of each well was measured at 492 nm. The inhibition rates (%) of the test samples against pancrelipase were calculated based on the absorbance at 492 nm. The concentrations of the compounds when then enzyme activity inhibition rate (%) reached 50% was set as IC50 value. The inhibition rate (%) could be calculated according to the following formula: Inhibition rate (%)=[(A−B)−(C−D)]/(A−B)×100

The target of a further assay is T2, porcine pancrelipase (Sus scrofa, UniProt P00591).
T2 construct: purchased Sigma
T2 sequence (P00591 1-450): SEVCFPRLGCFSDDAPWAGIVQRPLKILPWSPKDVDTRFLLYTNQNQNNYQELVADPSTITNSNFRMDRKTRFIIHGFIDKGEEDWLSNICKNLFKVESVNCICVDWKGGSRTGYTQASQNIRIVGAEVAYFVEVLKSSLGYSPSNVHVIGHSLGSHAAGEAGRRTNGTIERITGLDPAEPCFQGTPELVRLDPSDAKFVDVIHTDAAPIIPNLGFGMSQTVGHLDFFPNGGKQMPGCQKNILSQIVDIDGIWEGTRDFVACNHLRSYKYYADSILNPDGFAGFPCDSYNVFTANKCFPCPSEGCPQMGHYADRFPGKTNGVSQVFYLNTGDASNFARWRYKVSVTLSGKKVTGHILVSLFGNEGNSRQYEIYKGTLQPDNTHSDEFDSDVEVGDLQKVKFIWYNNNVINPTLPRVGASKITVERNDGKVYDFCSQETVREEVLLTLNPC
Briefly: inhibitory activity against pancrelipase (p-Nitrophenyl acetate substrate). The settings on record: 10 μM.
Excerpt: as §1
In the above formula, A, B, C, and D represented the absorbance of a blank well after the reaction, the absorbance of a blank well prior to the reaction, the absorbance of a sample well after the reaction, and the absorbance of a sample well prior to the reaction.

For another assay, the target named is T3, glucose oxidase (GOX) (Homo sapiens, UniProt Q9UJM8).
T3 sequence (Q9UJM8 1-370): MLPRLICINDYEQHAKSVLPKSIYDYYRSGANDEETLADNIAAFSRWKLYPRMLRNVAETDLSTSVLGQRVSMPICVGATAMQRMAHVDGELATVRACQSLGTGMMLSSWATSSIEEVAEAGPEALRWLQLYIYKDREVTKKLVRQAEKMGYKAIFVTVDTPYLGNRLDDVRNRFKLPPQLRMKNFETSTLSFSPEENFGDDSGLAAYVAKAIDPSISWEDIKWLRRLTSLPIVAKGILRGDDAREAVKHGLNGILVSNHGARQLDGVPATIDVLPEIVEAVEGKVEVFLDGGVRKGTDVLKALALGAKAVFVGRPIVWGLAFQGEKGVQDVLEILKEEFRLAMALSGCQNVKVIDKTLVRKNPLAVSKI
Briefly: inhibitory activity against glucose oxidase (GOX), enzyme coupling method with glycolic acid substrate. Also on record: Vmax: unit not given here. As to the method: Mechanism of experiment: enzyme coupling method utilizes peroxidase (POD) and substrates thereof to react with generated H2O2 to produce colored products so as to determine the catalytic reaction rate of glucose oxidase. POD catalyzes H2O2 to react with phenol and 4-amino antipyrine to produce brown-red quinone substances.
Experimental method: reagents were added according to the table below; the reaction was immediately initiated upon the final addition of substrate glycolic acid; the kinetic course of the reaction was detected by microplate reader; the enzyme activity was represented by Vmax, maximum reaction velocity.
The measurement results were fitted by Graphpad Prism 5.0 to calculate IC50 values.

With `O=C(Nc1ccccc1)Nc1ccc(-c2ccc(C(=O)[C@@H]3CCC[C@H]3C(=O)O)cc2)cc1` [A 922500, reference compound], the “Inhibition rate (%) (10 μM) against hDGAT1” value on hDGAT1 (10 μM) was determined as 83.36%. For the same compound, the “Inhibition rate (%) (50 μM) against hDGAT1” value on hDGAT1 (50 μM) is recorded as 97.51%.

`CCCCCCCCCCC[C@@H](C[C@@H]1OC(=O)[C@H]1CCCCCC)OC(=O)[C@H](CC(C)C)NC=O` [Olistat, reference compound]: at porcine pancrelipase, the “Inhibition rate % (10 μM) against pancrelipase” value was 83.96%.

For the compound `O=c1c(O)c(-c2ccc(O)c(O)c2)oc2cc(O)cc(O)c12` [Quercetin, reference compound], the Vmax at glucose oxidase (GOX) (0.1 μM) was determined as 34.68 ± 0.06; on glucose oxidase (GOX) (0.3 μM), 34.66 ± 0.20; on glucose oxidase (GOX) (1 μM), 33.85 ± 0.55; at glucose oxidase (GOX) (3 μM) it was 30.21 ± 0.12; on glucose oxidase (GOX) (10 μM), 26.55 ± 0.15; at glucose oxidase (GOX) (30 μM), 16.54 ± 0.12. For the same compound, the Vmax on glucose oxidase (GOX) (100 μM) was −1.40 ± 8.87. In addition, at glucose oxidase (GOX) (0.1 μM, read-out: Inhibition rate), the inhibition – broadly, the drop in the measured response relative to a control, in per cent – at 0.1 µM was found to be 2.82 ± 0.16%. In addition, at glucose oxidase (GOX) (0.3 μM, read-out: Inhibition rate), the inhibition at 0.3 µM was 2.87 ± 0.57%. The inhibition at 1 µM on glucose oxidase (GOX) (1 μM, read-out: Inhibition rate) is 5.12 ± 1.53%. The inhibition at 3 µM at glucose oxidase (GOX) (3 μM, read-out: Inhibition rate) was found to be 15.3 ± 0.32%. Further, on glucose oxidase (GOX) (10 μM, read-out: Inhibition rate), the inhibition at 10 µM is 25.6 ± 0.41%. The inhibition at 30 µM at glucose oxidase (GOX) (30 μM, read-out: Inhibition rate) was 53.66 ± 0.34%. The inhibition at 100 µM at glucose oxidase (GOX) (100 μM, read-out: Inhibition rate) was 104 ± 24.9%. In addition, at glucose oxidase (GOX) (fitted by Graphpad Prism 5.0), 21 µM corresponded to half-maximal inhibition (IC50).
